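Compound exposure: 48 hours, 5 concentrations, 96-well plates. GI50: concentration for 50% inhibition of growth.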 Active and inactive are the calls of the source. Cut-off read from the data, not from the text of the source: active = GI50 up to about 1.1 µM and inactive = higher.
Columns and labels:
Experiment in all cases: growth of human tumour cells (NCI), 48 h
KM12 = tested on: KM12
UO-31 = tested on: UO-31
SF-295 = tested on: SF-295
EKVX = tested on: EKVX
MOLT-4 = tested on: MOLT-4
NCI-H460 = tested on: NCI-H460
NCI-H522 = tested on: NCI-H522
OVCAR-8 = tested on: OVCAR-8
SR = tested on: SR
U-251 = tested on: U-251
CCRF-CEM = tested on: CCRF-CEM
T47D = tested on: T47D
MDA-MB-231 = tested on: MDA-MB-231
NCI-H23 = tested on: NCI-H23
PC-3 = tested on: PC-3
MDA-MB-435 = tested on: MDA-MB-435
BT-549 = tested on: BT-549
Malme-3M = tested on: Malme-3M

Measured: GI50

O=C1/C(=C/c2ccccc2O)N=C(c2ccccc2)N1c1nc2ccccc2s1
inactive: KM12 7.73 µM | UO-31 36.6 µM | SF-295 14.7 µM | EKVX 24.5 µM | MOLT-4 19.5 µM | NCI-H460 11.2 µM | NCI-H522 4.06 µM | OVCAR-8 23.9 µM | SR 2.24 µM | U-251 10.1 µM | CCRF-CEM 25.5 µM | T47D 21.1 µM | MDA-MB-231 18.3 µM | NCI-H23 11.1 µM | PC-3 15.7 µM | MDA-MB-435 3.1 µM

COc1cc(OC)cc(-n2c(N)c(-c3nc4ccccc4n3C)c3ccc([N+](=O)[O-])cc3c2=O)c1
inactive: KM12 35.6 µM | UO-31 > 100 µM | BT-549 > 100 µM | NCI-H460 > 100 µM | NCI-H522 55.8 µM | OVCAR-8 32 µM | U-251 46.8 µM | T47D > 100 µM | MDA-MB-231 80.5 µM | NCI-H23 > 100 µM | PC-3 > 100 µM | MDA-MB-435 > 100 µM

COc1ccc(/C=C/c2cc(OC)c(OC)c(OC)c2)cc1O[Si](C)(C)C(C)(C)C
inactive: UO-31 7.31 µM | SF-295 26 µM | EKVX 5.81 µM | MOLT-4 4.22 µM | BT-549 12.1 µM | NCI-H460 4.15 µM | NCI-H522 1.87 µM | OVCAR-8 2.74 µM | U-251 3.11 µM | T47D 18.7 µM | MDA-MB-231 5.02 µM | NCI-H23 5.62 µM | PC-3 4.72 µM | MDA-MB-435 2.26 µM

CCOC(=O)C(NC(=O)Nc1ccc(Cl)cc1)(OC)C(F)(F)F (stereo not drawn)
inactive: UO-31 5.75 µM | EKVX 56.5 µM | BT-549 > 100 µM | OVCAR-8 49.3 µM | SR 9.23 µM | U-251 52.5 µM | T47D 70 µM | NCI-H23 37.9 µM | PC-3 32.3 µM | MDA-MB-435 3.25 µM

COc1nc2ncc([C@@H](OC(C)=O)[C@@H](COC(C)=O)OC(C)=O)nc2c(=O)[nH]1
inactive: KM12 > 100 µM | UO-31 > 100 µM | SF-295 > 100 µM | EKVX > 100 µM | BT-549 > 100 µM | NCI-H460 > 100 µM | Malme-3M > 100 µM | OVCAR-8 > 100 µM | U-251 > 100 µM | CCRF-CEM > 100 µM | T47D > 100 µM | MDA-MB-231 > 100 µM | PC-3 > 100 µM | MDA-MB-435 > 100 µM

CCCCc1ccc(N2C(=O)c3cc(C)cnc3S2(=O)=O)cc1
inactive: KM12 > 100 µM | UO-31 > 100 µM | SF-295 91.8 µM | EKVX > 100 µM | MOLT-4 > 100 µM | NCI-H460 > 100 µM | NCI-H522 > 100 µM | Malme-3M > 100 µM | OVCAR-8 > 100 µM | SR > 100 µM | U-251 > 100 µM | T47D > 100 µM | MDA-MB-231 > 100 µM | NCI-H23 > 100 µM | PC-3 > 100 µM | MDA-MB-435 > 100 µM

Cc1cc(NS(=O)(=O)c2ccc(/N=N/c3c(Nc4ccccc4)nn(-c4ccc(S(=O)(=O)Nc5ccncn5)cc4)c3C)cc2)no1
inactive: KM12 > 100 µM | UO-31 > 100 µM | SF-295 > 100 µM | EKVX > 100 µM | MOLT-4 > 100 µM | NCI-H522 > 100 µM | Malme-3M > 100 µM | OVCAR-8 > 100 µM | U-251 > 100 µM | CCRF-CEM > 100 µM | T47D > 100 µM | MDA-MB-231 > 100 µM | NCI-H23 > 100 µM | PC-3 > 100 µM | MDA-MB-435 > 100 µM

Cc1ccc(S(=O)(=O)N2CCCN(S(=O)(=O)c3ccc(C)cc3)CCN(S(=O)(=O)c3ccc(C)cc3)CCCSCC2)cc1
inactive: UO-31 > 100 µM | SF-295 89.7 µM | EKVX > 100 µM | MOLT-4 > 100 µM | BT-549 > 100 µM | NCI-H460 > 100 µM | OVCAR-8 > 100 µM | U-251 76.7 µM | CCRF-CEM > 100 µM | T47D > 100 µM | MDA-MB-231 59.3 µM | NCI-H23 > 100 µM | MDA-MB-435 > 100 µM

CN(C)c1ccc(/N=C2/NC(=N\c3ccccc3)/C(=N/c3ccccc3)S2)cc1
inactive: KM12 > 100 µM | SF-295 > 100 µM | EKVX > 100 µM | MOLT-4 89.1 µM | NCI-H460 > 100 µM | NCI-H522 5.64 µM | Malme-3M > 100 µM | OVCAR-8 66.5 µM | SR > 100 µM | CCRF-CEM 97.5 µM | T47D 53.1 µM | MDA-MB-231 > 100 µM | NCI-H23 > 100 µM | PC-3 > 100 µM | MDA-MB-435 > 100 µM

CC1(C)N=c2c(ncn2N)=C(C(N)=O)N1
inactive: KM12 > 100 µM | SF-295 > 100 µM | EKVX > 100 µM | NCI-H460 > 100 µM | NCI-H522 > 100 µM | Malme-3M > 100 µM | OVCAR-8 > 100 µM | SR > 100 µM | U-251 > 100 µM | CCRF-CEM > 100 µM | T47D > 100 µM | MDA-MB-231 > 100 µM | NCI-H23 > 100 µM | PC-3 > 100 µM | MDA-MB-435 > 100 µM

CCNC(=O)NNc1ncnc2c1c(-c1ccc(Cl)cc1)cn2-c1ccc(C)cc1
inactive: KM12 20.1 µM | UO-31 14.2 µM | SF-295 15.7 µM | EKVX 20.2 µM | MOLT-4 16.4 µM | NCI-H460 22.4 µM | NCI-H522 17.9 µM | Malme-3M 18.8 µM | OVCAR-8 15 µM | SR 20.2 µM | U-251 17.1 µM | CCRF-CEM 20.2 µM | T47D 14.6 µM | MDA-MB-231 19.6 µM | NCI-H23 24.6 µM | PC-3 17.7 µM | MDA-MB-435 17 µM

COc1ccc(C)cc1NC(=S)N/N=C/c1ccco1
inactive: KM12 18.9 µM | UO-31 79.3 µM | SF-295 40.2 µM | EKVX 16.7 µM | MOLT-4 31.7 µM | BT-549 53.8 µM | NCI-H460 34.1 µM | NCI-H522 22.8 µM | Malme-3M 52.2 µM | OVCAR-8 37.3 µM | SR 11.3 µM | CCRF-CEM 29 µM | T47D 25.4 µM | NCI-H23 53.2 µM | PC-3 43.4 µM | MDA-MB-435 16 µM

N#C/C(C(=O)Nc1ccccc1)=C(/N)N1CCCCC1
inactive: KM12 > 100 µM | UO-31 67.3 µM | SF-295 > 100 µM | EKVX 98.4 µM | MOLT-4 > 100 µM | BT-549 > 100 µM | NCI-H460 > 100 µM | OVCAR-8 > 100 µM | SR > 100 µM | U-251 > 100 µM | CCRF-CEM > 100 µM | T47D > 100 µM | NCI-H23 > 100 µM | PC-3 > 100 µM | MDA-MB-435 84.9 µM

CCCCN1/C(=N/Nc2n[nH]c(=O)c3ccccc23)SCC1c1ccc(Cl)cc1 (stereo not drawn)
inactive: KM12 5.01 µM | UO-31 18.7 µM | SF-295 6.53 µM | EKVX 4.27 µM | NCI-H460 3.59 µM | NCI-H522 11.8 µM | Malme-3M 22 µM | OVCAR-8 15.4 µM | SR 4.73 µM | U-251 4.92 µM | T47D 4.29 µM | MDA-MB-231 20.6 µM | NCI-H23 1.64 µM | PC-3 14 µM | MDA-MB-435 11 µM

CCNC12CCC(C1)C(C)(C)C2=O (stereo not drawn)
inactive: KM12 > 100 µM | UO-31 > 100 µM | SF-295 > 100 µM | EKVX > 100 µM | MOLT-4 > 100 µM | BT-549 > 100 µM | NCI-H460 > 100 µM | OVCAR-8 > 100 µM | SR > 100 µM | U-251 > 100 µM | CCRF-CEM > 100 µM | T47D > 100 µM | NCI-H23 > 100 µM | PC-3 > 100 µM | MDA-MB-435 > 100 µM

O=c1c2ccccc2n2c(-c3ccc(O)cc3)nnc2n1-c1ccccc1
inactive: KM12 49.2 µM | UO-31 3.72 µM | SF-295 15.6 µM | EKVX 17 µM | MOLT-4 36.1 µM | NCI-H460 17.8 µM | NCI-H522 18.2 µM | Malme-3M 21.5 µM | OVCAR-8 30.8 µM | SR 21.3 µM | U-251 17.2 µM | CCRF-CEM 14.8 µM | T47D 13.4 µM | MDA-MB-231 17.1 µM | NCI-H23 20.3 µM | PC-3 17.9 µM | MDA-MB-435 18.5 µM

O=C1CCC2(c3ccc(F)cc3)Nc3ncncc3N12 (stereo not drawn)
inactive: KM12 > 10 µM | UO-31 > 10 µM | SF-295 > 10 µM | EKVX 9.93 µM | MOLT-4 > 10 µM | BT-549 > 10 µM | NCI-H460 > 10 µM | NCI-H522 > 10 µM | Malme-3M > 10 µM | OVCAR-8 > 10 µM | SR > 10 µM | U-251 > 10 µM | CCRF-CEM > 10 µM | NCI-H23 > 10 µM | PC-3 > 10 µM | MDA-MB-435 > 10 µM

O=C(NNc1nc(-c2ccccc2)cs1)C(F)(F)F
inactive: KM12 30.1 µM | UO-31 3.3 µM | SF-295 29.5 µM | EKVX 98.9 µM | MOLT-4 20 µM | NCI-H460 63.5 µM | NCI-H522 35.7 µM | Malme-3M 53.7 µM | OVCAR-8 33.4 µM | SR 33.4 µM | U-251 26.3 µM | CCRF-CEM 24.9 µM | T47D 23.9 µM | MDA-MB-231 68.7 µM | NCI-H23 34 µM | PC-3 37.8 µM | MDA-MB-435 34 µM

Reference: ChEMBL document CHEMBL1201862, “PubChem BioAssay data set” (2004)
